Results from US9963473B2, “Stabilized form of tetrofosmin and its use” (priority 2014, dated 2018).

Legend:
[1] = Hygroscopicity (open vial, change of weight); assay type: physicochemical
From the text: An open vial of Tetrofosmin x 2 HBF4 was stored at room temperature, normal atmosphere and 50% humidity.

[2] = Storage stability of Tetrofosmin x 2 HBF4 (1H and 31P NMR spectra); assay type: physicochemical
Procedure: Tetrofosmin x 2 HBF4 was stored at room temperature without protective gas (e. g. argon or nitrogen). In accordance to example 1, the ^1H and ^31P spectra were unchanged after 12 months.
Moreover, Tetrofosmin x 2 HBF4 was heated in a normal atmosphere (with oxygen) at 50° C. for 6 hours.

Compound | physical nature / hygroscopicity ([1]; own experiments of the inventors) | 1H and 31P spectra after heating ([2]; normal atmosphere (with oxygen), 50° C. for 6 hours) | 1H and 31P spectra after storage ([2]; room temperature, without protective gas, after 12 months) | change of weight (hygroscopicity) ([1]; open vial, room temperature, normal atmosphere, 50% humidity, after 72 h)
CCOCCP(CCOCC)CCP(CCOCC)CCOCC.Cl [Tetrofosmin hydrochloride, reference compound] | oily and hygrospcopic | – | – | –
Tetrofosmin x 2 HBF4 | – | no sign of degradation | unchanged | no change of weight
